In ChEMBL document CHEMBL1132617, “Diversity analysis of 14 156 molecules tested by the National Cancer Institute for anti-HIV activity using the quantitative structure-activity relational expert system MCASE” (J Med Chem, 1999):
Activity calls are given as the source filed them. The calls are words filed in the database; no cut-off is given here.

Key:
[1] = test system: Human immunodeficiency virus 1; assay: HIV antiviral activity; format: functional
[2] = molecular target: Human immunodeficiency virus type 1 reverse transcriptase (Human immunodeficiency virus 1) (UniProt Q72547); assay: Antiviral activity as inhibition of HIV reverse transcriptase; Active
[3] = molecular target: Human immunodeficiency virus type 1 integrase (Human immunodeficiency virus 1) (UniProt Q7ZJM1); assay: Antiviral activity as inhibition of HIV integrase; Inactive
[4] = molecular target: Human immunodeficiency virus type 1 protease (Human immunodeficiency virus 1) (UniProt Q72874); assay: Antiviral activity as inhibition of HIV protease; Inactive
[5] = molecular target: Human immunodeficiency virus type 1 reverse transcriptase (Human immunodeficiency virus 1) (UniProt Q72547); assay: Antiviral activity as inhibition of HIV reverse transcriptase; Inactive
[6] = molecular target: Human immunodeficiency virus type 1 protease (Human immunodeficiency virus 1) (UniProt Q72874); assay: Antiviral activity as inhibition of HIV protease; Active

Sequence of Human immunodeficiency virus type 1 integrase (Human immunodeficiency virus 1) (Q7ZJM1 as listed by the source): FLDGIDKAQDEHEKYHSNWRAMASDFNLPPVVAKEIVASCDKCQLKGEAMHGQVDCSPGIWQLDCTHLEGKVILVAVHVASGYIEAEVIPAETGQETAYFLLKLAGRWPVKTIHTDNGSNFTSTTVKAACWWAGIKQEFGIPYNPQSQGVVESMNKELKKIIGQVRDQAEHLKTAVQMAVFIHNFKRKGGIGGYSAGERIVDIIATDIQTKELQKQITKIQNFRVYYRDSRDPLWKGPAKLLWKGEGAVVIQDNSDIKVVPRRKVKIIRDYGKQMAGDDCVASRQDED

| Average activity [1] | Structure (SMILES) | also measured |
| --- | --- | --- |
| 64 | CC(=O)NC(=O)N(C)C1CCC(N=[N+]=[N-])O1 (centres undefined) | – |
| – | CCN1c2ccccc2C2NC=C(C)C2c2ccc(OC)cc21 (centres undefined) | Activity [2]: Active |
| 56 | CCC(Cl)CC | – |
| 60 | C=C/C(=C\C)NC(C)=O | – |
| – | O=c1c(O)c(-c2ccc(O)cc2)oc2cc(O)cc(O)c12 | Activity [3]: inactive |
| – | O=C(O)C1Cc2cc3c(cc2C(O)C1CO)OCO3 (centres undefined) | Activity [4]: inactive |
| 60 | C=CC(=C\C)/N=C(\C)S | – |
| – | CC1C(=O)NC(=O)N(COCCO)C1Sc1cccc(O)c1 (centres undefined) | Activity [5]: inactive |
| – | CCCCCCc1cc2c(cc1O)CC(=O)C(C(c1ccccc1)C1COc3cc(O)c(CCCCCC)c(O)c3C1)=C2O (centres undefined) | Activity [6]: Active |
| 37 | C=C/C(=C\C)C(=O)N/C(C)=C/C | – |
| 56 | CCC(I)CC | – |
| 56 | CCC(F)CC | – |
| 51 | C=C/C=C/C=C/S(=O)(=O)/C=C/C | – |
| – | CCOCN1C(=O)NC(=O)C(C)C1Sc1ccccc1 (centres undefined) | Activity [2]: Active |
| 51 | C=C/C=C\C=C\[S+]([O-])/C=C/C (centres undefined) | – |
| 56 | CCC1OC1C (centres undefined) | – |
| 51 | C=C/C=C\C=C\C(=O)/C=C/C | – |
| – | O=C1C2=C(C(=O)c3ccccc31)C(O)(S(=O)(=O)O)C(O)(S(=O)(=O)O)C1N=CC=CC21 (centres undefined) | Activity [6]: Active |

| Structure (SMILES) | Average activity [1] | also measured |
| --- | --- | --- |
| C=C/C=C\C=C\[PH](=O)/C=C/C (centres undefined) | 51 | – |
